Measurements reported in patent US3998808A, “Compositions of matter D-hetero-1,1-(α-thiocyanoacetyl) compounds” (Velsicol Chemical Corporation, priority 1971, dated 1976).
Where two headings read alike, the source gives them in different places.

Key:
Type in all cases: in vivo
[1] = test system: housefly (Musca domestica); test: housefly knockdown test; details: sprayed with formulation containing 3500 ppm; knockdown after 30 minutes, in comparison to a control
Experimental: In one experiment, designated as the housefly knockdown test, 50, 3-day-old, unsexed, adult houseflies were anesthetized with carbon dioxide gas and placed into a fine mesh wire cage. The flies were allowed to recover completely from the effects of the carbon dioxide gas and were then sprayed with a test formulation containing 3500 ppm of the test compound. After 30 minutes the knockdown value of the test compound was determined. Knockdown is considered as an individual fly that is unable to move its body length, and the knowndown value is given as a percent of down flies based on the number of down flies in comparison to a control.

[2] = test system: housefly (Musca domestica); test: housefly topical test; details: read-out: % Control Housefly Topical Test
Experimental: In another experiment designated as the housefly topical test, each of fifty flies was contacted with a test compound by applying […] of test formulation containing 3500 ppm of active chemical to the dorsum of its thorax. The flies were then placed in a wire mesh cage where they were supplied with sugar syrup. At the end of a 24 hour period the mortality of the flies was observed and rated in comparison to a control.

[3] = test system: leaf rust of wheat (Puccinia rubigo-vera); test: protection of wheat against leaf rust of wheat; details: wheat plants sprayed with 1000 ppm solutions before inoculation; about 8 days in greenhouse; in comparison with untreated controls
Experimental: In one experiment carried out for the protection of wheat against leaf rust of wheat (Puccinia rubigo-vera), 6 day old wheat plants were sprayed with 1000 ppm solutions of the test compounds. After the spray film had dried, the plants were inoculated by shaking a 9 to 13 day old leaf rust of wheat culture over the foliage. Immediately after inoculation the plants were placed in a 20° C. moist chamber overnight. The plants were then transferred to a greenhouse and kept there for a period of about 8 days. After this time the extent of the disease was observed and rated in comparison with untreated controls.

[4] = test system: pea aphid (Acyrthosiphon pisum); test: whole plant or invertebrate; details: sprayed at 3500 ppm, aqueous emulsion of an acetone solution, 48 hours, in comparison to a control, read-out: mortality of the pea aphids
Excerpt: The insecticidal activity of the compounds of this invention was further illustrated in an experiment for the control of the pea aphid (Acyrthosiphon pisum). In this experiment a ten day old Laxton pea plant contained in a small plastic pot was infested with ten adult pea aphids. The plant and pea aphids were then sprayed with the test compound formulated as an aqueous emulsion of an acetone solution, at a concentration of 3500 ppm. The infested plants were then placed in a holding chamber maintained at a constant temperature for a period of 48 hours. After this time the mortality of the aphids was determined and rated on a percent basis in comparison to a control. In this experiment the compounds 1-(α-thiocyanoacetyl) pyrrolidine and 1-(α-thiocyanoacetyl)-2,6-dimethylpiperidine gave 100% mortality of the pea aphids.

[5] = 1 ml of formulation containing 3500 ppm applied to dorsum of thorax, mortality after 24 hours, in comparison to a control

| Compound | % Control Housefly Knockdown Test [1] | mortality at 3500 µg/mL [2, 5] | % Control (leaf rust of wheat) [3] | mortality at 3500 ppm [4] | mortality at 3500 µg/mL ([2]; 24 h) |
| --- | --- | --- | --- | --- | --- |
| N#CSCC(=O)N1CCCCCC1 [1-(α-thiocyanoacetyl) hexamethylenimine] | 94% | 31% | – | – | – |
| CC1CCC(C)N1C(=O)CSC#N (stereo not drawn) [1-(α-thiocyanoacetyl)-2,5-dimethylpyrrolidine] | 100% | 100% | – | – | – |
| CC1CCCC(C)N1C(=O)CSC#N (stereo not drawn) [1-(α-thiocyanoacetyl)-2,6-dimethylpiperidine] | 92% | – | 96% | 100% | 94% |
| CC1CCCN(C(=O)CSC#N)C1 (stereo not drawn) [1-(α-thiocyanoacetyl)-3-pipecoline] | 100% | 100% | 90% | – | – |
| CC1CCN(C(=O)CSC#N)CC1 [1-(α-thiocyanoacetyl)-4-pipecoline] | 100% | 100% | 99% | – | – |
| N#CSCC(=O)N1CCCC1 [1-(γ-Thiocyanoacetyl) pyrrolidine, 1-(α-thiocyanoacetyl) pyrrolidine] | – | – | 98% | 100% | – |
